In patent US8003812B2, “C10 cyclopentyl ester substituted taxanes” (priority 2004, dated 2011):
Several values for one entry are separate records, joined by “and”; a condition that tells them apart may be missing. Identical values can stand only once. Like-named read-outs stand apart in the source and are kept apart here.

Experiments:
[1] = tested on: HCT 116 human colon carcinoma; assay: In vitro cytotoxicity, cell colony formation assay, HCT116; assay type: cell-based; settings: 72 h drug incubation
Description: (§1) The cells were incubated in a CO2 incubator at 37° C. for 5 h for attachment to the bottom of Petri dishes. The compound of the present invention was made up fresh in medium at ten times the final concentration, and then 0.3 mL of this stock solution was added to the 2.7 mL of medium in the dish. The cells were then incubated with drugs for 72 h at 37° C. At the end of incubation the drug-containing media were decanted, the dishes were rinsed with 4 mL of Hank's Balance Salt Solution (HBSS), 5 mL of fresh medium was added, and the dishes were returned to the incubator for colony formation. The cell colonies were counted using a colony counter after incubation for 7 days. Cell survival was calculated and the values of IC50 (the drug concentration producing 50% inhibition of colony formation) were determined for each tested compound.

[2] = tested on: VM46 (resistant variant of human colon carcinoma HCT 116); assay: In vitro cytotoxicity, cell colony formation assay, VM46; assay type: cell-based; settings: 72 h drug incubation
Description: as §1
Identical assessments were carried out using VM46 (resistant variant of human colon carcinoma HCT 116 obtained from Dr. Li-Xi, M.D, Ph.D., California Pacific Medical Center, CA).

[3] = tested on: DLD-1 (resistant human colon carcinoma); assay: In vitro cytotoxicity, MTT assay, DLD-1; assay type: cell-based
[4] = tested on: Sprague-Dawley rats; assay: In vivo toxicity assessment in rats, intravenous
Description: Toxicity was assessed in 250-300g Sprague-Dawley rats and three rats were used per dose group. Three dose groups of the test compound, (i.e., 3 mg/kg, 9 mg/kg and 12 mg/kg for intravenous administration; 15 mg/kg, 30 mg/kg and 40 mg/kg) and 1 control group constituted a study. Animals were observed and clinical chemistry data collected at days 4 and 10. Rats were euthanized on day 11 and the nerves were excised and fixed upon euthanization for further examination.
Each rat is scored as described below and a final toxicity score that incorporates all parameters is assigned. A dead rat is assigned a score of zero. Most of the parameters contribute a positive value towards a total possible score of 130. For body weight, white blood cell, and platelet decreases, recovery is considered. […] The total score is divided by 13 to put it on a scale from 0 to 10.

[5] = tested on: human pancreatic tumor xenograft Panc-1; settings: for Efficacy Score = 10*(TWd1−TWdn)/TWd1: single dose IV
Description: [formula] where TTE is expressed in days, endpoint volume is in mm^3, b is the intercept, and m is the slope of the line obtained by linear regression of a log-transformed tumor growth data set. The data set is comprised of the first observation that exceeded the study endpoint volume and the three consecutive observations that immediately preceded the attainment of the endpoint volume. […] Animals classified as TR (treatment-related) deaths or NTRM (non-treatment-related metastasis) deaths are assigned a TTE value equal to the day of death. Animals classified as NTR (non-treatment-related) deaths are excluded from TTE calculations. Treatment efficacy was determined from tumor growth delay (TGD), which is defined as the increase in the median TTE for a treatment group compared to the control group: TGD=T−C, expressed in days, or as a percentage of the median TTE of the control group:
Treatment may cause partial regression (PR) or complete regression (CR) of the tumor in an animal. In a PR response, the tumor volume is 50% or less of its Day 1 volume for three consecutive measurements during the course of the study, and equal to or greater than 13.5 mm^3 for one or more of these three measurements. In a CR response, the tumor volume is less than 13.5 mm^3 for three consecutive measurements during the course of the study. An animal with a CR response at the termination of a study is additionally classified as a long-term tumor-free survivor (LTTFS).
With respect to toxicity, the animals were weighed daily on Days 1-5, then twice weekly until the completion of the study. The mice were examined frequently for overt signs of any adverse, drug-related side effects. […] The log rank test was employed to analyze the significance of the difference between the TTE values of a drug-treated group and the vehicle-treated control group. The log rank test analyzes the data for all animals except the NTR deaths. The two-tailed statistical analyses were conducted at P=0.05. The group median tumor growth curves show the median tumor volume (MTV) as a function of time. When an animal exited the study due to tumor size or TR death, the final tumor volume recorded for the animal was included with the data used to calculate the median volume at subsequent time points. If more than one death occurred in a treatment group, the tumor growth curve for that group was truncated at the time of the second death.
Human Panc-1 pancreatic carcinomas were maintained in athymic nude mice. A tumor fragment (1 mm^3) was implanted s.c. into the right flank of each test mouse. Tumors were monitored twice weekly and then daily as their size approached 200-400 mm^3 with a mean of 250-300 mm^3. On Day 1 of the study, the animals were sorted into groups of six mice, with tumor sizes of 171.5-486.0 mm^3 and group mean tumor sizes of 269.7-275.0 mm^3. Mice were sorted into groups containing six mice each, and treated according to the protocol in Tables 2A and 2B. All treatments were administered intravenously. Control Group 1 mice received the ethanol 5% and Liposyn II 95% vehicle, once on Day 1 (qd×1). […] Dosing volumes were 0.5 ml/20 g body weight for qd×1 dosing regimens and 0.3 mL/20 g body weight for the qod×5 or q4d×4 dosing schedules. Dosing volumes were scaled to the body weight of each animal. The vehicle was given to Group 1 mice in a single dose on Day 1 (qd×1).

[6] = tested on: HT29 (human colon carcinoma) xenograft; settings: for Efficacy Score = 10*(TWd1−TWdn)/TWd1: single dose IV
Description: Score=10*(TWd1−TWdn)/TWd1, where
TWd1=tumor weight on day 1
TWDn=lowest tumor weight on day 10 or later
Thus the best score for complete regression would be 10.

[7] = IV, second IV 9091 line (two IV dosage regimens)
[8] = Group 2: 20 mg/kg IV qod × 5, 6 mice
[9] = Group 3: 30 mg/kg IV q4d × 4, 6 mice
[10] = Group 4: 120 mg/kg IV qd × 1, 6 mice
[11] = Group 5: 60 mg/kg IV qd × 5 (Table 2A), 6 mice
[12] = Group 5: 120 mg/kg IV QD × 1 in 5% E-95% I-20, 6 mice
[13] = Group 6: 60 mg/kg IV QD × 1 in 5% E-95% I-20, 6 mice
[14] = Group 7: 120 mg/kg IV QD × 1 in 5% ET in Saline, 6 mice
[15] = Group 8: 60 mg/kg IV QD × 1 in 5% ET in Saline, 6 mice
[16] = Group 9: 120 mg/kg IV QD × 1 in 5% EC in Saline, 6 mice
[17] = Group 10: 60 mg/kg IV QD × 1 in 5% EC in Saline, 6 mice
[18] = Group 14: 30 mg/kg IV Q4d × 4 in 5% E-95% I-20, 6 mice
[19] = Group 15: 20 mg/kg IV Q4d × 4 in 5% E-95% I-20, 6 mice
[20] = Group 16: 30 mg/kg IV Q4d × 4 in 5% ET in Saline, 6 mice
[21] = Group 17: 20 mg/kg IV Q4d × 4 in 5% ET in Saline, 6 mice
[22] = Group 18: 30 mg/kg IV Q4d × 4 in 5% EC in Saline, 6 mice
[23] = Group 19: 20 mg/kg IV Q4D × 4 in 5% EC in Saline, 6 mice

Compound: CC(=O)OC12COC1CC(O)C1(C)C(=O)C(OC(=O)C3CCCC3)C3=C(C)C(OC(=O)C(O)C(NC(=O)OC(C)C)c4cccs4)CC(O)(C(OC(=O)c4ccccc4)C21)C3(C)C (stereo not shown) [Compound 9091]
- IC50 [1]: 0.6 nM and 0.63 nM
- IC50 [2]: 1.9 nM and 1.87 nM
- IC50 [3]: 1.5 nM
- Tox Score, Dose 3 mg ([4]; IV, scale 0 to 10): 9
- Tox Score, Dose 3 mg [4, 7]: 9.5
- Tox Score, Dose 9 mg ([4]; IV, scale 0 to 10): 7.1
- Tox Score, Dose 9 mg [4, 7]: 8.1
- Tox Score, Dose 12 mg ([4]; IV, scale 0 to 10): 7.8
- Tox Score, Dose 12 mg [4, 7]: 6.8
- Tox Score, Weighted Avg ([4]; IV, Wt Avg = (Σ(dose × grp score))/24): 7.7
- Tox Score, Average ([4]; IV, average of 3 dose groups): 7.9
- Tox Score, Average [4, 7]: 8.1
- Tox Score, Weighted Avg [4, 7]: 7.6
- Rat tox score IV (second value in cell) ([4]; IV, second of two values printed for 9091 (two IV regimens)): 8, 8
- Rat tox score IV ([4]; IV, summary score, scale 0 to 10): 8, 8
- toxicity profile in rats compared with congeners ([4]; administered intravenously): best toxicity profile
- antitumor effectiveness among IV regimens ([5]; 30 mg/kg q4d×4 IV regimen): most effective
- No. of CR [5, 8]: 0
- No. of LTTES [5, 8]: 0
- No. of NTR [5, 8]: 0
- No. of PR [5, 8]: 1
- No. of TR [5, 8]: 5
- Max % BW Loss; Day ([5]; Group 2: 20 mg/kg IV qod × 5, Day 10): −15.7%;
- Tumor Burden Median (n), Day 56 ([5]; Group 2: 20 mg/kg IV qod × 5, n=1): 108 (1) mm^3
- Median TTE ([5]; Group 2: 20 mg/kg IV qod × 5, not evaluable for efficacy (five TR deaths)): 10.0 days
- T − C ([5]; Group 3: 30 mg/kg IV q4d × 4): 40.2 days
- % TGD ([5]; Group 3: 30 mg/kg IV q4d × 4, 30 mg/kg): 254%
- No. of CR [5, 9]: 1
- No. of LTTES [5, 9]: 1
- No. of NTR [5, 9]: 0
- No. of PR [5, 9]: 5
- No. of TR [5, 9]: 0
- Tumor Burden Median (n), Day 56 (MTV) ([5]; Group 3: 30 mg/kg IV q4d × 4, Day 56): 40 mm^3
- Tumor Burden Median (n), Day 56 (MTV) ([5]; Group 3: 30 mg/kg IV q4d × 4, Day 56, 30 mg/kg): 40.25 (6) mm^3
- Median TTE ([5]; Group 3: 30 mg/kg IV q4d × 4, endpoint 1200 mg): 56.0 days
- T − C ([5]; Group 4: 120 mg/kg IV qd × 1): 40.2 days
- % TGD ([5]; Group 4: 120 mg/kg IV qd × 1, 120 mg/kg): 254%
- No. of CR [5, 10]: 0
- No. of LTTES [5, 10]: 0
- No. of NTR [5, 10]: 2
- No. of PR [5, 10]: 6
- No. of TR [5, 10]: 0
- Tumor Burden Median (n), Day 56 (MTV) ([5]; Group 4: 120 mg/kg IV qd × 1, Day 56, 120 mg/kg): 58 mm^3 and 57.5 (6) mm^3
- Median TTE ([5]; Group 4: 120 mg/kg IV qd × 1, endpoint 1200 mg): 56.0 days
- T − C ([5]; Group 5: 60 mg/kg IV qd × 5 (Table 2A)): 40.2 days
- % TGD ([5]; Group 5: 60 mg/kg IV qd × 5 (Table 2A), 60 mg/kg): 254%
- No. of CR [5, 11]: 0
- No. of LTTES [5, 11]: 0
- No. of NTR [5, 11]: 0
- No. of PR [5, 11]: 6
- No. of TR [5, 11]: 0
- Tumor Burden Median (n), Day 56 (MTV) ([5]; Group 5: 60 mg/kg IV qd × 5 (Table 2A), Day 56, 60 mg/kg): 126 mm^3 and 126 (6) mm^3
- Median TTE ([5]; Group 5: 60 mg/kg IV qd × 5 (Table 2A), endpoint 1200 mg): 56.0 days
- end-of-study survivors ([5]; each of 30 mg/kg q4d×4, 120 mg/kg and 60 mg/kg single dose IV, 6 mice per group): six
- Efficacy Score = 10*(TWd1−TWdn)/TWd1 ([5]; Dose 60, best score 10): 7.7
- Efficacy Score = 10*(TWd1−TWdn)/TWd1 ([5]; Dose 120, best score 10): 8.6
- # Death NTR [6, 12]: 0
- # Death TR [6, 12]: 0
- MDS to 1.0 g ± SEM (n) ([6]; Group 6: 60 mg/kg IV QD × 1 in 5% E-95% I-20): 51.9 ± 0.0
- # Death NTR [6, 13]: 0
- # Death TR [6, 13]: 0
- # Death NTR [6, 14]: 0
- # Death TR [6, 14]: 5
- MDS to 1.0 g ± SEM (n) ([6]; Group 8: 60 mg/kg IV QD × 1 in 5% ET in Saline): 51.8±
- # Death NTR [6, 15]: 0
- # Death TR [6, 15]: 0
- # Death NTR [6, 16]: 0
- # Death TR [6, 16]: 0
- MDS to 1.0 g ± SEM (n) ([6]; Group 10: 60 mg/kg IV QD × 1 in 5% EC in Saline): 46.0±
- # Death NTR [6, 17]: 0
- # Death TR [6, 17]: 0
- # Death NTR [6, 18]: 0
- # Death TR [6, 18]: 0
- # Death NTR [6, 19]: 0
- # Death TR [6, 19]: 0
- # Death NTR [6, 20]: 0
- # Death TR [6, 20]: 0
- # Death NTR [6, 21]: 0
- # Death TR [6, 21]: 0
- # Death NTR [6, 22]: 0
- # Death TR [6, 22]: 0
- # Death NTR [6, 23]: 0
- # Death TR [6, 23]: 0
- Efficacy Score = 10*(TWd1−TWdn)/TWd1 ([6]; Dose 60, best score 10): 8
- Efficacy Score = 10*(TWd1−TWdn)/TWd1 ([6]; Dose 120, best score 10): 8.7
